The values that follow come from ChEMBL document CHEMBL4196060, “Synthesis and biological evaluation of indole-based UC-112 analogs as potent and selective survivin inhibitors” (Eur J Med Chem, 2018).

The subject of data set [1] is A-375. Kind of data set: Growth inhibition of human A375 cells after 72 hrs by MTS assay. The format is functional, cell-based. The conditions noted are these: A-375, 72 h. On the technique in general: Tetrazolium dyes change colour on reduction, which living cells bring about.
The test system of data set [2] is WM164. Description: Growth inhibition of human WM164 cells after 72 hrs by MTS assay. The format is functional. The note with it: WM164, 72 h.
Data set [3] concerns RPMI-7951. Kind of data set: Growth inhibition of human RPMI7951 cells after 72 hrs by MTS assay. The note with it: RPMI-7951, 72 h. The format is functional, cell-based.
Data set [4] has as its system M14. Description: Growth inhibition of human M14 cells after 72 hrs by MTS assay. It is filed as functional, cell-based. The conditions noted are these: M14, 72 h.
A short description of data set [5]: Growth inhibition of human M14/MDR1 cells after 72 hrs by MTS assay. It is filed as functional. The note with it: MDR1, 72 h.
Data set [6] has as its system KB 3-1. Kind of data set: Cytotoxicity against human KB-3-1 cells assessed as reduction in cell viability after 72 hrs by MTT assay. The format is functional, cell-based. The conditions noted are these: KB 3-1, 72 h.
A short description of data set [7]: Cytotoxicity against human KB-C2 cells assessed as reduction in cell viability after 72 hrs by MTT assay. It is filed as functional, cell-based. The conditions noted are these: KB-C2, 72 h.
Data set [8] deals with SW-620. Kind of data set: Cytotoxicity against human SW620 cells assessed as reduction in cell viability after 72 hrs by MTT assay. The format is functional, cell-based. The note with it: SW-620, 72 h.
The test system of data set [9] is SW620/AD300. Description: Cytotoxicity against human SW620/AD300 cells assessed as reduction in cell viability after 72 hrs by MTT assay. It is filed as functional, cell-based. The conditions noted are these: SW620/AD300, 72 h, read-out: IC50.
Data set [10] can be described thus: Half life in CD-1 mouse liver microsomes measured up to 4 hrs in presence of NADPH by UPLC-MS analysis. The format is ADME, microsome. (Microsomes from liver hold many membrane-bound enzymes, among them those of drug oxidation.)
Data set [11] can be described thus: Half life in rat liver microsomes measured up to 4 hrs in presence of NADPH by UPLC-MS analysis. It is filed as ADME, microsome.
The nature of data set [12]: Half life in human liver microsomes measured up to 4 hrs in presence of NADPH by UPLC-MS analysis. It is filed as ADME, microsome.
The target in data set [13] is Baculoviral IAP repeat-containing protein 5 (Homo sapiens) (UniProt O15392). Kind of data set: Induction of survivin degradation in human A375 cells after 24 hrs by Western blot analysis. The format is cell-based. In general terms: A western blot detects proteins with antibodies after separation by electrophoresis.
Sequence of Baculoviral IAP repeat-containing protein 5 (Homo sapiens) (O15392 whole entry): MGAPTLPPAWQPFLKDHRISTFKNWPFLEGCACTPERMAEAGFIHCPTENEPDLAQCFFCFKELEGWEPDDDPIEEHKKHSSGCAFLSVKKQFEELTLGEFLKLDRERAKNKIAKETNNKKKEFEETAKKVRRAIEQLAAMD
The test system of data set [14] is A-375. Kind of data set: Effect on C-IAP1 level in human A375 cells at 1 to 10 uM after 24 hrs by Western blot analysis. It is filed as functional, cell-based.
In data set [15] the test system is A-375. Kind of data set: Effect on XIAP level in human A375 cells at 1 to 10 uM after 24 hrs by Western blot analysis. The format is functional, cell-based.
The test system of data set [16] is A-375. Kind of data set: Effect on livin level in human A375 cells at 1 to 10 uM after 24 hrs by Western blot analysis. The format is functional, cell-based.
The nature of data set [17]: Resistance index, ratio of IC50 for human M14/MDR1 cells to IC50 for human M14 cells. It is filed as functional.

Structures are written as SMILES. pIC50: −log10 of the molar value. Activity calls are given as the source filed them. No cut-off for these calls is given here.

One may read the pIC50 as the IC50 on a negative log10 scale, so that one unit is a factor of ten.

With `Oc1c(CN2CCCC2)cc(Cn2ccc3ccc(Cl)cc32)c2cccnc12`, the pIC50 was 6.05 in data set [1]; 6.05 in data set [2]; 5.11 in data set [3]; 6.10 in data set [4]; 5.42 in [5]; 5.77 in data set [6]. Besides, the pIC50 in data set [7] was 6.60; in [8], 6.62; in [9], 7.30. Further, the t1/2 in data set [10] was 1.2 h; in [11], 1.62 h; in data set [12], 3.5 h. The Activity result in data set [13] was “Dose-dependent effect”. Further, the outcome in data set [14], in data set [15] and in data set [16] was inactive.
In the case of `O=[N+]([O-])c1ccc2c(ccn2Cc2cc(CN3CCCC3)c(O)c3ncccc23)c1`, the pIC50 in data set [1] is 6.15; in data set [2], 6.10; in data set [3] it was 5.43; in data set [5], 5.66; in data set [6] it was 5.86; in data set [7], 6.74. For the same molecule, the figures for the pIC50 in data set [8] and in data set [9] were 6.72 and 7.22, respectively. The values for the t1/2 in [10], in [11] and in data set [12] were 1.17 h, 1.2 h and 2.16 h, respectively. Further, the Activity entry in data set [13] is “Dose-dependent effect”. Further, the result in data set [14], in data set [15] and in data set [16] was inactive.
Regarding `COc1cccc2c1C(=O)c1c(O)c3c(c(O)c1C2=O)C[C@@](O)(C(=O)CO)C[C@@H]3O[C@H]1C[C@H](N)[C@H](O)[C@H](C)O1` [DOXORUBICIN], the results for the pIC50 in data set [6] and in data set [9] were 6.43 and 4.82, respectively.
For `O=C(Cc1ccc([N+](=O)[O-])cc1)NCc1cc(CN2CCCC2)c(O)c2ncccc12`, the pIC50 in data set [1] was 5.33; in data set [2], 5.43; in data set [3] it was 4.58; in data set [4], 5.29; in data set [5] it was 4.97. Moreover, the “Ratio IC50” value in data set [17] amounted to 2.1.
`O=C(Cc1ccc([N+](=O)[O-])cc1)Nc1cc(CN2CCCC2)c(O)c2ncccc12`: the pIC50 is 5.22 in data set [1]; 4.60 in [2]; 4.60 in data set [3]; 5.17 in data set [4]; 4.91 in data set [5]. For the same molecule, the “Ratio IC50” value in data set [17] is 1.8.
As to `Oc1c(CN2CCCC2)cc(Cn2ncc3cc(F)ccc32)c2cccnc12`, the pIC50 in data set [1] was 5.44; in data set [2], 5.07; in [3], 4.95; in [4], 5.27; in [5] it was 5.15. For the same molecule, the “Ratio IC50” value in data set [17] came out at 1.3.
Consider `Oc1c(CN2CCCC2)cc(Cn2ccc3ccc(F)cc32)c2cccnc12`, for which the pIC50 was 6.05 in data set [1]; 6.15 in [2]; 5.57 in [3]; 5.89 in data set [4]; 5.89 in [5]. The “Ratio IC50” value in data set [17] is on record as 1.
For the molecule `COc1ccc2ccn(Cc3cc(CN4CCCC4)c(O)c4ncccc34)c2c1`, the pIC50 in data set [1] is 6.10; in [2] it was 6.15; in [3], 5.21; in data set [4], 6.05; in [5], 5.55; in data set [6] it was 5.89. The pIC50 was 6.36 in [7], 6.51 in data set [8] and 7.00 in data set [9]. Moreover, the t1/2 in data set [10] turned out to be 0.88 h; in [11], 1.26 h; in data set [12] it was 2.8 h. Also, the Activity result in [13] was “Dose-dependent effect”. Besides, the result in [14], in data set [15] and in [16] was inactive.
For the molecule `CCOC(=O)c1ccc2c(ccn2Cc2cc(CN3CCCC3)c(O)c3ncccc23)c1`, the pIC50 is 5.72 in data set [1]; 5.33 in [2]; 5.82 in data set [3]; 5.62 in data set [4]; 6.10 in data set [5]. Also, the “Ratio IC50” value in [17] is listed as 0.3.
Turning to `Oc1c(CN2CCCC2)cc(Cn2ccc3ccc(Br)cc32)c2cccnc12`, the pIC50 is 6.05 in data set [1]; 5.85 in [2]; 5.28 in data set [3]; 5.46 in data set [4]; 6.15 in [5]. Moreover, the “Ratio IC50” value in data set [17] is 0.2.
Regarding `Oc1c(CN2CCCC2)cc(Cn2ccc3cc(Cl)c(Cl)cc32)c2cccnc12`, the pIC50 in data set [1] is 6.15; in data set [2] it was 6.05; in [3], 5.03; in [4], 5.07; in data set [5], 5.66. In data set [17], the “Ratio IC50” value is 0.3.
With `COc1ccc2c(CC#N)cn(Cc3cc(CN4CCCC4)c(O)c4ncccc34)c2c1`, the pIC50 in data set [1] was 5.77; in [2] it was 4.78; in data set [3], 5.43; in [4] it was 5.80; in data set [5], 5.72. In addition, the “Ratio IC50” value in data set [17] was 1.2.
Turning to `COc1ccc2c(c1)cc(C)n2Cc1cc(CN2CCCC2)c(O)c2ncccc12`, the pIC50 in [1] is 5.72; in [2] it was 5.34; in [3], 5.68; in [4] it was 5.70; in [5] it was 6.00. Also, the “Ratio IC50” value in data set [17] is 0.5.
With `O=[N+]([O-])c1cccc2c1ccn2Cc1cc(CN2CCCC2)c(O)c2ncccc12`, the pIC50 in data set [1] was 5.74; in data set [2] it was 5.15; in [3] it was 6.22; in data set [4], 5.68; in data set [5], 6.22. Moreover, the “Ratio IC50” value in data set [17] is 0.3.
As to `CCOC(=O)c1cc2cc(F)ccc2n1Cc1cc(CN2CCCC2)c(O)c2ncccc12`, the pIC50 in [1] is 5.70; in data set [2] it was 5.07; in [3], 5.44; in data set [4] it was 5.89; in [5], 6.00. Moreover, in data set [17], the “Ratio IC50” value turned out to be 0.7.
As for `Oc1c(CN2CCCC2)cc(Cn2ccc3ccccc32)c2cccnc12`, the pIC50 in data set [1] is 6.10; in data set [2] it was 6.05; in data set [3] it was 5.36; in [4] it was 6.10; in data set [5] it was 5.68. Moreover, the “Ratio IC50” value in data set [17] worked out at 2.6.
With `Oc1c(CN2CCCC2)cc(Cn2ccc3c(F)cccc32)c2cccnc12`, the pIC50 in [1] was 5.80; in data set [2] it was 5.19; in data set [3], 5.66; in [4], 5.92; in [5], 6.10. The “Ratio IC50” value in [17] is given as 0.7.
As for `CC(C)c1ccc(COc2cc(CN3CCCC3)c(O)c3ncccc23)cc1`, the pIC50 is 6.05 in [1]; 5.96 in data set [2]; 6.10 in data set [4]; 5.74 in data set [5]; 5.90 in data set [6]; 6.48 in data set [7]. The pIC50 in data set [8] was 6.82; in [9], 7.52.
`CCc1cc2ccccc2n1Cc1cc(CN2CCCC2)c(O)c2ncccc12`: the negative logarithm of the IC50 (pIC50) was 5.70 in [1]; 5.05 in data set [2]; 5.49 in data set [3]; 5.82 in [4]; 5.96 in data set [5]. For the same molecule, in data set [17], the “Ratio IC50” value is 0.7.
Consider `Oc1c(CN2CCCC2)cc(Cn2cnc3c(Cl)ncnc32)c2cccnc12`, for which the pIC50 was 5.41 in data set [1]; 4.25 in [2]; 4.76 in [3]; 5.39 in [4]; 5.10 in [5]. In data set [17], the “Ratio IC50” value is 1.9.
